Consider 5 compounds from ChEMBL document CHEMBL3085687, “Gymnopalynes A and B, chloropropynyl-isocoumarin antibiotics from cultures of the basidiomycete Gymnopus sp” (J Nat Prod, 2013).

Experiment [1] has as its system Mycolicibacterium diernhoferi. As to the kind of experiment: Antibacterial activity against Mycobacterium diernhoferi DSM 43524 assessed as growth inhibition up to 66.6 ug/mL. The experiment is classed as functional, organism-based.
Experiment [2] is described as follows: Antifungal activity against Penicillium capsulatum DSM 2210 assessed as growth inhibition up to 66.6 ug/mL. The experiment is classed as functional.
Experiment [3] relates to Eremothecium coryli. Briefly: Antifungal activity against Nematospora coryli DSM 6981 assessed as growth inhibition up to 66.6 ug/mL. The class given is functional, organism-based.
Experiment [4] can be described thus: Antifungal activity against Trichosporon oleaginosus DSM 11815 assessed as growth inhibition up to 66.6 ug/mL. The experiment is classed as functional. Particulars: Cutaneotrichosporon oleaginosum.
Experiment [5] deals with Pimelobacter simplex. As to the kind of experiment: Antibacterial activity against Nocardioides simplex DSM 20130 assessed as growth inhibition up to 66.6 ug/mL. The experiment is classed as functional.
Experiment [6] has as its system Candida albicans. Briefly: Antifungal activity against Candida albicans DSM 1665 assessed as growth inhibition up to 66.6 ug/mL. The class given is functional, organism-based.
The subject of the next experiment is L929. Briefly: Cytotoxicity against mouse L929 cells. The class given is cell-based.
In experiment [7] the test system is Pseudomonas aeruginosa. As to the kind of experiment: Antibacterial activity against Pseudomonas aeruginosa DSM 50071 assessed as growth inhibition up to 66.6 ug/mL. The experiment is classed as functional, organism-based.
The subject of experiment [8] is Micrococcus luteus. As to the kind of experiment: Antibacterial activity against Micrococcus luteus DSM 20030 assessed as growth inhibition up to 66.6 ug/mL. Particulars: NCTC 2665. The experiment is classed as functional, organism-based.
In experiment [9] the test system is Chromobacterium violaceum. As to the kind of experiment: Antibacterial activity against Chromobacterium violaceum DSM 30191 assessed as growth inhibition. The class given is functional.
The subject of experiment [10] is Aspergillus clavatus. As to the kind of experiment: Antifungal activity against Aspergillus clavatus DSM 816 assessed as growth inhibition up to 66.6 ug/mL. The class given is functional, organism-based.
Experiment [11] concerns Rhodotorula glutinis. Briefly: Antifungal activity against Rhodotorula glutinis DSM 10134 assessed as growth inhibition up to 66.6 ug/mL. The experiment is classed as functional, organism-based.
Experiment [12] concerns Amorphotheca resinae. As to the kind of experiment: Antifungal activity against Hormoconis resinae DSM 1203 assessed as growth inhibition up to 66.6 ug/mL. The class given is functional, organism-based.
Experiment [13] has as its system Paenibacillus polymyxa. As to the kind of experiment: Antibacterial activity against Paenibacillus polymyxa DSM 36 assessed as growth inhibition up to 66.6 ug/mL. The experiment is classed as functional.
Experiment [14] has as its system Staphylococcus aureus. Briefly: Antibacterial activity against Staphylococcus aureus DSM 346 assessed as growth inhibition up to 66.6 ug/mL. The class given is functional, organism-based.
The test system of experiment [15] is Escherichia coli. As to the kind of experiment: Antibacterial activity against Escherichia coli DSM 1116 assessed as growth inhibition up to 66.6 ug/mL. The class given is functional, organism-based.
In a further experiment the test system is Mucor hiemalis. Briefly: Antifungal activity against Mucor hiemalis DSM 2656 assessed as growth inhibition. The experiment is classed as functional.
Experiment [16] deals with Wickerhamomyces anomalus. As to the kind of experiment: Antifungal activity against Pichia anomala DSM 6766 assessed as growth inhibition up to 66.6 ug/mL. The class given is functional, organism-based.
The test system of experiment [17] is Nocardia sp. As to the kind of experiment: Antibacterial activity against Nocardia sp. DSM 43069 assessed as growth inhibition up to 66.6 ug/mL. The experiment is classed as functional, organism-based.
In experiment [18] the test system is Schizosaccharomyces pombe. As to the kind of experiment: Antifungal activity against Schizosaccharomyces pombe DSM 70572 assessed as growth inhibition up to 66.6 ug/mL. The class given is functional, organism-based.
For experiment [19], the system named is Wickerhamomyces anomalus. As to the kind of experiment: Antifungal activity against Pichia anomala DSM 6766 assessed as growth inhibition. The experiment is classed as functional, organism-based.
Experiment [20] relates to Amorphotheca resinae. As to the kind of experiment: Antifungal activity against Hormoconis resinae DSM 1203 assessed as growth inhibition. The class given is functional.
Experiment [21] relates to Rhodotorula glutinis. Briefly: Antifungal activity against Rhodotorula glutinis DSM 10134 assessed as growth inhibition. The class given is functional.
A short description of experiment [22]: Antifungal activity against Penicillium capsulatum DSM 2210 assessed as growth inhibition. The experiment is classed as functional.
In experiment [23] the test system is Eremothecium coryli. Briefly: Antifungal activity against Nematospora coryli DSM 6981 assessed as growth inhibition. The class given is functional.
Experiment [24] is described as follows: Antifungal activity against Trichosporon oleaginosus DSM 11815 assessed as growth inhibition. The experiment is classed as functional. Particulars: Cutaneotrichosporon oleaginosum.
In experiment [25] the test system is Candida albicans. As to the kind of experiment: Antifungal activity against Candida albicans DSM 1665 assessed as growth inhibition. The experiment is classed as functional, organism-based.
The subject of experiment [26] is Schizosaccharomyces pombe. Briefly: Antifungal activity against Schizosaccharomyces pombe DSM 70572 assessed as growth inhibition. The class given is functional.
Experiment [27] relates to Aspergillus clavatus. As to the kind of experiment: Antifungal activity against Aspergillus clavatus DSM 816 assessed as growth inhibition. The experiment is classed as functional.
In experiment [28] the test system is Pimelobacter simplex. Briefly: Antibacterial activity against Nocardioides simplex DSM 20130 assessed as growth inhibition. The experiment is classed as functional.
In experiment [29] the test system is Nocardia sp. As to the kind of experiment: Antibacterial activity against Nocardia sp. DSM 43069 assessed as growth inhibition. The class given is functional.
Experiment [30] has as its system Pseudomonas aeruginosa. As to the kind of experiment: Antibacterial activity against Pseudomonas aeruginosa DSM 50071 assessed as growth inhibition. The class given is functional.
For experiment [31], the system named is Staphylococcus aureus. Briefly: Antibacterial activity against Staphylococcus aureus DSM 346 assessed as growth inhibition. The experiment is classed as functional.
The test system of experiment [32] is Paenibacillus polymyxa. As to the kind of experiment: Antibacterial activity against Paenibacillus polymyxa DSM 36 assessed as growth inhibition. The class given is functional.
For experiment [33], the system named is Mycolicibacterium diernhoferi. Briefly: Antibacterial activity against Mycobacterium diernhoferi DSM 43524 assessed as growth inhibition. The class given is functional.
The subject of experiment [34] is Micrococcus luteus. Briefly: Antibacterial activity against Micrococcus luteus DSM 20030 assessed as growth inhibition. The class given is functional. Particulars: NCTC 2665.
For experiment [35], the system named is Escherichia coli. As to the kind of experiment: Antibacterial activity against Escherichia coli DSM 1116 assessed as growth inhibition. The experiment is classed as functional.

≈ marks a conversion by molar mass, not a printed value. Calls of active or inactive are those of the source. The rule behind the calls is not given here.

As a reminder, the IC50 is the concentration that gives 50% inhibition. As usually defined, the MIC is the lowest concentration found to suppress growth. Consider `O=C1O[C@H](C#CCCl)Cc2ccccc21`, for which the “growth inhibition (GI)” value (in experiment [1]; in experiment [2]; with Eremothecium coryli [3]; in experiment [4]; in the experiment on Pimelobacter simplex [5]; with Candida albicans [6]) was “inactive” each time. For the same compound, the “growth inhibition (GI)” value in the experiment on Pseudomonas aeruginosa [7], in the experiment on Micrococcus luteus [8], in the experiment with Aspergillus clavatus [10], with Rhodotorula glutinis [11], with Amorphotheca resinae [12] and in the experiment on Paenibacillus polymyxa [13] was “inactive” in each case. For the same compound, the “growth inhibition (GI)” value (with Staphylococcus aureus [14]; with Escherichia coli [15]; with Wickerhamomyces anomalus [16]; in the experiment with Nocardia sp. [17]; in experiment [18]) was “inactive” each time. In addition, half-maximal inhibition in the experiment with L929 (IC50) was put at 14 µM. Further, the MIC (in experiment [9]; in the experiment with Mucor hiemalis) was 33.3 µg/mL (≈ 151 µM) each time.
Consider NYSTATIN, for which the MIC in the experiment on Wickerhamomyces anomalus [19] is 4.2 µg/mL; in the experiment on Amorphotheca resinae [20], < 0.25 µg/mL; in the experiment on Rhodotorula glutinis [21] it was 0.52 µg/mL; in experiment [22], 16.6 µg/mL; with Eremothecium coryli [23], 3.3 µg/mL; in experiment [24] it was 1 µg/mL. Besides, the minimum inhibitory concentration (MIC) in the experiment on Candida albicans [25] was 4.2 µg/mL; in experiment [26] it was 33.3 µg/mL; in the experiment on Aspergillus clavatus [27] it was 2.1 µg/mL; in the experiment with Mucor hiemalis it was 2.1 µg/mL.
Turning to `O=c1oc(C#CCCl)cc2ccccc12`, the “growth inhibition (GI)” value (in experiment [1]; in experiment [2]; in the experiment on Candida albicans [6]; in the experiment on Micrococcus luteus [8]; with Paenibacillus polymyxa [13]; in the experiment with Staphylococcus aureus [14]) was “inactive” throughout. In addition, the “growth inhibition (GI)” value in the experiment with Escherichia coli [15] and in the experiment on Wickerhamomyces anomalus [16] was “inactive” throughout. Further, the MIC in the experiment with Amorphotheca resinae [20] was 33.3 µg/mL (≈ 152 µM); in the experiment on Pimelobacter simplex [28] it was 33.3 µg/mL (≈ 152 µM); with Rhodotorula glutinis [21], 33.3 µg/mL (≈ 152 µM); in the experiment on Nocardia sp. [29] it was 67 µg/mL (≈ 306 µM); in the experiment with Eremothecium coryli [23], 16.6 µg/mL (≈ 75.9 µM); in experiment [24], 33.3 µg/mL (≈ 152 µM). Further, the minimal inhibitory concentration (MIC) in experiment [9] came out at 33.3 µg/mL (≈ 152 µM); in the experiment with Pseudomonas aeruginosa [30], 67 µg/mL (≈ 306 µM); in [26], 16.6 µg/mL (≈ 75.9 µM); with Aspergillus clavatus [27] it was 16.6 µg/mL (≈ 75.9 µM); in the experiment on Mucor hiemalis it was 16.6 µg/mL (≈ 75.9 µM). Besides, the IC50 in the experiment with L929 was found to be 3.7 µM.
Take `CN(C)[C@@H]1C(O)=C(C(N)=O)C(=O)[C@@]2(O)C(O)=C3C(=O)c4c(O)cccc4[C@@](C)(O)[C@H]3[C@H](O)[C@@H]12.Cl` [OXYTETRACYCLINE HYDROCHLORIDE]: the minimum inhibitory concentration (MIC) in the experiment on Pimelobacter simplex [28] was 16.6 µg/mL; in the experiment on Staphylococcus aureus [31] it was ≤ 0.25 µg/mL; in the experiment on Nocardia sp. [29], 0.25 µg/mL; in experiment [9], 1 µg/mL; with Paenibacillus polymyxa [32] it was 6.7 µg/mL; in [33] it was ≤ 0.25 µg/mL. For the same compound, the minimal inhibitory concentration (MIC) in the experiment with Micrococcus luteus [34] came out at 2.1 µg/mL; in the experiment with Escherichia coli [35] it was 1 µg/mL.
For GENTAMICIN, the MIC with Pseudomonas aeruginosa [30] was 67 µg/mL.
